How the values were obtained:
DLD-1 cancer cells = experiment: MTS assay, cell growth inhibition; format: cell-based; settings: DLD-1 cells, 72 h incubation; test concentration not given
Method: (§1) Cells were maintained at 37° C., 5% CO2 in DMEM media supplemented with 1% fetal bovine serum, penicillin/streptomycin and fungizone (Invitrogen). Cells were seeded into 96-well tissue culture plates at 3000 per well and cultured at 37° C. for 18 hours. Test compounds were dissolved and diluted to 300× in DMSO then diluted 1:40 in DMEM. Cells were incubated with test compounds for 72 hours followed by incubation with tetrazolium compound (3-(4,5-dimethylthiazol-2-yl)-5-(3-carboxymethoxyphenyl)-2-(4-sulfophenyl)-2H-tetrazolium, inner salt; MTS) and the electron coupling reagent, phenazine methosulfate (PMS) for 4 hours. […] The ability of compounds to inhibit cell growth in this assay is correlated with the reduction of dehydrogenase enzyme activity found in metabolically active cells. The measurement of the absorbance of the formazan was assessed using a Victor (Perkin Elmer) microplate reader at 492 nm. The calculated IC50 value is the concentration of the test compound that causes a 50% decrease in the absorbance. Selected compounds have been tested in DLD-1 and MDA-MB-231 cancer cells.

MDA-MB-231 cancer cells = experiment: MTS assay, cell growth inhibition; format: cell-based; settings: MDA-MB-231 cells, 72 h incubation; test concentration not given
Method: as §1

Structure (SMILES)	DLD-1, MTS, 72 h (% Inhibition) (DLD-1 cancer cells) [%]	MDA-MB-231, MTS, 72 h (% Inhibition) (MDA-MB-231 cancer cells) [%]
CC(Nc1ncc2c(n1)Nc1ccccc1-n1nnnc1-2)c1ccc(Cl)cc1 (stereo not drawn) [Compound 52, N-[1-(4-chlorophenyl)ethyl]-9H-pyrimido[5,4-c]tetrazolo[1,5-a][1,5]benzodiazepin-11-amine]	97	98
c1ccc(CNc2ncc3c(n2)Nc2ccccc2-n2nnnc2-3)nc1 [Compound 25, N-(pyridin-2-ylmethyl)-9H-pyrimido[5,4-c]tetrazolo[1,5-a][1,5]benzodiazepin-11-amine]	97	79
Fc1ccc(CCNc2ncc3c(n2)Nc2ccccc2-n2nnnc2-3)cc1 [Compound 74, N-[2-(4-fluorophenyl)ethyl]-9H-pyrimido[5,4-c]tetrazolo[1,5-a][1,5]benzodiazepin-11-amine]	78	–
c1ccc2c(c1)Nc1nc(NC3CCC3)ncc1-c1nnnn1-2 [Compound 85, N-cyclobutyl-9H-pyrimido[5,4-c]tetrazolo[1,5-a][1,5]benzodiazepin-11-amine]	97	99
c1ccc(CCNc2ncc3c(n2)Nc2ccccc2-n2nnnc2-3)nc1 [Compound 98, N-(2-pyridin-2-ylethyl)-9H-pyrimido[5,4-c]tetrazolo[1,5-a][1,5]benzodiazepin-11-amine]	76	41
CCCNc1ncc2c(n1)Nc1ccccc1-n1nnnc1-2 [Compound 41, N-propyl-9H-pyrimido[5,4-c]tetrazolo[1,5-a][1,5]benzodiazepin-11-amine]	97	98
CC1CCCN1c1ncc2c(n1)Nc1ccccc1-n1nnnc1-2 (stereo not drawn) [Compound 68, 11-(2-methylpyrrolidin-1-yl)-9H-pyrimido[5,4-c]tetrazolo[1,5-a][1,5]benzodiazepine]	97	75
CN1CCC(Nc2ncc3c(n2)Nc2ccccc2-n2nnnc2-3)CC1 [Compound 66, N-(1-methylpiperidin-4-yl)-9H-pyrimido[5,4-c]tetrazolo[1,5-a][1,5]benzodiazepin-11-amine]	97	–
Fc1ccc(CN2c3ccccc3-n3nnnc3-c3cnc(NCc4ccncc4)nc32)cc1F [Compound 20, 9-(3,4-difluorobenzyl)-N-(pyridin-4-ylmethyl)-9H-pyrimido[5,4-c]tetrazolo[1,5-a][1,5]benzodiazepin-11-amine]	102	102
Cc1ccc(CCNc2ncc3c(n2)Nc2ccccc2-n2nnnc2-3)cc1 [Compound 90, N-[2-(4-methylphenyl)ethyl]-9H-pyrimido[5,4-c]tetrazolo[1,5-a][1,5]benzodiazepin-11-amine]	61	–
CC(CNc1ncc2c(n1)Nc1ccccc1-n1nnnc1-2)c1ccccc1 (stereo not drawn) [Compound 44, N-(2-phenylpropyl)-9H-pyrimido[5,4-c]tetrazolo[1,5-a][1,5]benzodiazepin-11-amine]	51	–
CC(C)CC(C)Nc1ncc2c(n1)Nc1ccccc1-n1nnnc1-2 (stereo not drawn) [Compound 63, N-(1,3-dimethylbutyl)-9H-pyrimido[5,4-c]tetrazolo[1,5-a][1,5]benzodiazepin-11-amine]	90	32
c1ccc(CC2CCN(c3ncc4c(n3)Nc3ccccc3-n3nnnc3-4)CC2)cc1 [Compound 105, 11-(4-benzylpiperidin-1-yl)-9H-pyrimido[5,4-c]tetrazolo[1,5-a][1,5]benzodiazepine]	–	56
c1ccc2c(c1)Nc1nc(NCC3CC3)ncc1-c1nnnn1-2 [Compound 9, N-(cyclopropylmethyl)-9H-pyrimido[5,4-c]tetrazolo[1,5-a][1,5]benzodiazepin-11-amine]	98	92
Clc1ccccc1CCNc1ncc2c(n1)Nc1ccccc1-n1nnnc1-2 [Compound 89, N-[2-(2-chlorophenyl)ethyl]-9H-pyrimido[5,4-c]tetrazolo[1,5-a][1,5]benzodiazepin-11-amine]	31	–
CCC(C)CNc1ncc2c(n1)Nc1ccccc1-n1nnnc1-2 (stereo not drawn) [Compound 95, N-(2-methylbutyl)-9H-pyrimido[5,4-c]tetrazolo[1,5-a][1,5]benzodiazepin-11-amine]	97	99

Structure (SMILES)	DLD-1, MTS, 72 h (% Inhibition) (DLD-1 cancer cells) [%]	MDA-MB-231, MTS, 72 h (% Inhibition) (MDA-MB-231 cancer cells) [%]
Fc1ccc(CNc2ncc3c(n2)Nc2ccccc2-n2nnnc2-3)cc1F [Compound 36, N-(3,4-difluorobenzyl)-9H-pyrimido[5,4-c]tetrazolo[1,5-a][1,5]benzodiazepin-11-amine]	31	–
COc1cccc(CCNc2ncc3c(n2)Nc2ccccc2-n2nnnc2-3)c1 [Compound 84, N-[2-(3-methoxyphenyl)ethyl]-9H-pyrimido[5,4-c]tetrazolo[1,5-a][1,5]benzodiazepin-11-amine]	42	–
Cc1ccc(CNc2ncc3c(n2)Nc2ccccc2-n2nnnc2-3)cc1 [Compound 73, N-(4-methylbenzyl)-9H-pyrimido[5,4-c]tetrazolo[1,5-a][1,5]benzodiazepin-11-amine]	–	39
Fc1ccc(CNc2ncc3c(n2)Nc2ccccc2-n2nnnc2-3)cc1Cl [Compound 55, N-(3-chloro-4-fluorobenzyl)-9H-pyrimido[5,4-c]tetrazolo[1,5-a][1,5]benzodiazepin-11-amine]	45	–
Fc1ccc(CNc2ncc3c(n2)Nc2ccccc2-n2nnnc2-3)c(Cl)c1 [Compound 102, N-(2-chloro-4-fluorobenzyl)-9H-pyrimido[5,4-c]tetrazolo[1,5-a][1,5]benzodiazepin-11-amine]	84	–
COc1ccccc1CCNc1ncc2c(n1)Nc1ccccc1-n1nnnc1-2 [Compound 69, N-[2-(2-methoxyphenyl)ethyl]-9H-pyrimido[5,4-c]tetrazolo[1,5-a][1,5]benzodiazepin-11-amine]	58	–
COc1ccccc1CNc1ncc2c(n1)Nc1ccccc1-n1nnnc1-2 [Compound 50, N-(2-methoxybenzyl)-9H-pyrimido[5,4-c]tetrazolo[1,5-a][1,5]benzodiazepin-11-amine]	54	–
CC(C)CN(C)c1ncc2c(n1)Nc1ccccc1-n1nnnc1-2 [Compound 47, N-methyl-N-(2-methylpropyl)-9H-pyrimido[5,4-c]tetrazolo[1,5-a][1,5]benzodiazepin-11-amine]	46	–
c1ccc2c(c1)Nc1nc(N3CCN(c4ccncc4)CC3)ncc1-c1nnnn1-2 [Compound 34, 11-(4-pyridin-4-ylpiperazin-1-yl)-9H-pyrimido[5,4-c]tetrazolo[1,5-a][1,5]benzodiazepine]	97	–
Fc1cc(F)cc(CNc2ncc3c(n2)Nc2ccccc2-n2nnnc2-3)c1 [Compound 76, N-(3,5-difluorobenzyl)-9H-pyrimido[5,4-c]tetrazolo[1,5-a][1,5]benzodiazepin-11-amine]	73	–
Cc1ccc(CNc2ncc3c(n2)Nc2ccccc2-n2nnnc2-3)cc1F [Compound 46, N-(3-fluoro-4-methylbenzyl)-9H-pyrimido[5,4-c]tetrazolo[1,5-a][1,5]benzodiazepin-11-amine]	69	–
Cc1cccc(CNc2ncc3c(n2)Nc2ccccc2-n2nnnc2-3)c1 [Compound 83, N-(3-methylbenzyl)-9H-pyrimido[5,4-c]tetrazolo[1,5-a][1,5]benzodiazepin-11-amine]	89	–
c1csc(CNc2ncc3c(n2)Nc2ccccc2-n2nnnc2-3)c1 [Compound 81, N-(thiophen-2-ylmethyl)-9H-pyrimido[5,4-c]tetrazolo[1,5-a][1,5]benzodiazepin-11-amine]	41	–
c1ccc2c(c1)Nc1nc(NCCN3CCCC3)ncc1-c1nnnn1-2 [Compound 37, N-(2-pyrrolidin-1-ylethyl)-9H-pyrimido[5,4-c]tetrazolo[1,5-a][1,5]benzodiazepin-11-amine]	95	–
CC1CCCCC1Nc1ncc2c(n1)Nc1ccccc1-n1nnnc1-2 (stereo not drawn) [Compound 97, N-(2-methylcyclohexyl)-9H-pyrimido[5,4-c]tetrazolo[1,5-a][1,5]benzodiazepin-11-amine]	39	–
c1ccc(CCNc2ncc3c(n2)Nc2ccccc2-n2nnnc2-3)cc1 [Compound 35, N-(2-phenylethyl)-9H-pyrimido[5,4-c]tetrazolo[1,5-a][1,5]benzodiazepin-11-amine]	–	42

Source: patent US8470812B2, “Substituted benzo-pyrimido-tetrazolo-diazepine compounds” (ArQule, Inc., priority 2009, dated 2013)
